Data: US5912230A, “Anti-fungal and anti-bacterial histatin-based peptides” (priority 1998, dated 1999)
Where no end group is shown, it is not given here.

Key:
[1] = system: C. albicans blastoconidia; details: blastoconidia, 1 h at 37° C., pH 7.4
Excerpt: C. albicans is a dimorphic yeast. It can exist in a yeast or blastoconidial form, which upon germination develops into the hyphal or germinated form. While the germinated form is considered to be more invasive, most of the C. albicans isolates harvested from the oral cavities of healthy individuals appear to be in the blastoconidial form. (Arendorf, T. M. et al. (1980), Arch. Oral Biol. 25:1-10; Gow, N.A.R. et al. (1987), Criti. Rev. Microbiol. 15:73-78; Odds, F. C. (1988), Candida and Candidosis, 2nd ed., Bailliere Tindall, London, England). Anti-fungal activity of synthetic histatin 5, histatin-based peptide 113, peptides based on portions of the amino acid sequences of histatin-based peptide 113 and peptides derived from histatin-based peptide 113 with specified amino acid substitutions was measured in assays designed to test the effectiveness of the peptides against the blastoconidia form of Candida (Table 1). These assays, which measure killing of blastoconidia of C. albicans, are described in Xu et al., which is herein incorporated by reference. (Xu, T. et al. (1991), Infect. Immun. 59(8):2549-2554).
A well-described strain of C. albicans was used in the bioassay. This strain, ATCC 44505, was originally isolated from the human oral cavity. Cultures were stored at 4° C. on Sabouraud dextrose agar plates (Difco Laboratories, Detroit, Mich.) until use. Stationary phase growth cells were obtained following growth at 30° C. for 18 h on Sabouraud dextrose agar plates. Colonies were harvested and suspended in 10 mM potassium phosphate buffer (PPB), pH 7.4.
To initiate log phase growth, an aliquot of stock C. albicans was suspended in Sabouraud dextrose broth (Difco) and incubated at 30° C. in a shaking water bath. The growth phase was determined by taking aliquots of the culture at one hour intervals to monitor the optical density (O.D.) at 560 nm. […] Log phase cells were harvested and utilized in the blastoconidia killing assay in a manner identical to that described for stationary phase cells. A final concentration of 10^5 cells/ml (either stationary or log phase fungus) was used in all assays.
The standard suspension buffer utilized in the blastospore killing assay was 0.01M PPB, pH 7.4. An alternate suspension buffer, N-2-hydroxyethylpiperazine-N'-2-ethanesulfonic acids (HEPES; Sigma Chemical Co., St. Louis, Mo.), pH 7.4, can also be utilized.
a. For the killing of blastoconidia assay, 50 μl aliquots of cells (2×10^5 cells/ml) diluted in suspension buffer were allowed to attach to a polystyrene 96-well micro-titer plate (COSTAR, Cambridge, Mass.) for 15 min at room temperature, and then incubated with an equal volume of a histatin or histatin peptide in suspension buffer for 1 h at 37° C. Controls were carried out in the absence of the histatin or histatin peptide. After incubation, wells were washed three times by centrifugation at 1,000 xg for 5 min and covered with aliquots of molten Sabouraud dextrose broth (Difco) containing 2% agarose (Sigma) at 45° C. The plate was then incubated at 30° C. for 8 h. Under such conditions, live cells will divide and begin to form colonies, while dead cells will remain as single cells. To determine the percentage of blastoconidia killed, a total of 100 single cells and/or colonies were counted under a Nikon inverted microscope at 400× magnification and the extent of killing was calculated using the formula: [1-(number of colonies in treated sample)/(number of colonies in control)]×100%.
Data were obtained by calculating the mean and standard deviation from triplicate assays.

[2] = system: P. gingivalis hemagglutination of erythrocytes; experiment: histatin peptide inhibition of hemagglutination assay; format: cell-based, Porphyromonas gingivalis; details: 2 hours at room temperature, visual examination
Description: The P. gingivalis strain of Section C.(1) was also used for the hemagglutination assays. The bacterial growth and culture conditions were also the same as those described in Section C.(1).
A classic assay was utilized to determine the hemagglutination potential of the P. gingivalis strain. Microorganisms were inoculated into BFB broth and cultured overnight, for approximately 24 hours at 37° C. under strictly anaerobic conditions with continuous agitation on a minishaker (IKA-Labortechnik, Staufen i. Br., Germany). The bacteria were harvested by centrifugatin at 3,000 r.p.m. for 20 min, at 4° C., washed twice in 0.01M phosphate buffered saline (PBS), pH 7.4, and suspended in the same buffer to an optical density of 1.0 at 550 nm. […] One ml of blood was drawn each time, washed twice in PBS at 1,000 r.p.m. for 10 min at 4° C. and suspended in the same buffer at a 2% (v/v) final concentration. Fifty μl of the bacterial suspension were serially diluted in PBS (two-fold steps) in a 96-well U-bottom microplate (Costar, Cambridge, Mass.). Fifty μl of the erythrocyte suspension were added to each well. Controls without bacteria or erythrocytes were included. The microplate was slightly shaken and incubated at room temperature for 2 hours. Visible examination on a white background was used to determine hemagglutination. The amount of hemagglutination was rated as none,(-), moderate (+/-), or strong (+). Erythrocytes in control wells with PBS precipitated to the center of the well, whereas erythrocyte-bacteria aggregates precipitated at the periphery of the bottom. The hemagglutination titer was expressed as the reciprocal of the highest dilution of the bacterial suspension providing visible hemagglutination.
Preparation of erythrocyte and bacterial suspensions were the same as for the hemagglutination assay. Fifty μl of histatin peptide solutions were diluted in PBS in a U-bottom microplate, at various two-fold concentrations with 600 nmole/ml being the highest. The bacterial concentration utilized was normally twice the minimal concentration which gave strong hemagglutination. Equal volumes of the bacterial suspension were poured into the wells containing the histatin peptides. Finally, 50 μl of erythrocyte suspension were added in each well. The microplate was slightly shaken and incubated at room temperature for 2 hours. Controls were made by replacement of the peptide dilutions with PBS only. The experiments were conducted at least twice. The lowest histatin peptide concentration without hemagglutination (complete inhibition) was determined upon visual examination. The highest final histatin peptide concentration utilized was 100 nmole/ml.

Clostripain = target: T1, Clostripain (Hathewaya histolytica, UniProt P09870); experiment: clostripain assay (BAPNA hydrolysis); format: biochemical, Clostridium histolyticum; details: read-out: Clostripain: IC50 (μM) for inhibition of Clostripain
T1 construct: purchased Sigma Chemical Corp., St. Louis, Mo
Description: Clostripain from Clostridium histolyticum (Sigma Chemical Corp., St. Louis, Mo.) was dissolved in deionized water to a concentration of 1 mg/mL (300 units/mg) and activated with the addition of 10 mmol/L DTT. To measure its hydrolytic activity, clostripain (6 units) was added to […] Hepes buffer, pH 7.5, containing 80 gmol/L BAPNA (benzoyl-arginine-p-nitroanilide), together with 5.6 μmol/L of histatin peptide inhibitor. As controls, assays were performed in the absence of any histatin peptide inhibitor. The activity was monitored continuously at 405 nm using a Molecular Devices VMax microtitre plate reader. The activities were determined from the maximum rates of substrate hydrolysis. Assays were done in duplicate, and the means normalized to the controls.

[3] = system: Porphyromonas gingivalis strain A7A1-28; experiment: microdilution bacteriostatic assay (P. gingivalis growth inhibition); format: cell-based
Description: (a) The bacteria used in one investigation, Porphyromonas gingivalis strain A7A1-28, is a typical key pathogenic organism associated with destructive periodontal diseases. The bacteria were multiply subcultured in Enriched Todd Hewitt broth (ETHB, Difco Lab., Detroit, Mich.). Microorganisms were stored in the same broths containing 20% and 50% glycerol, at -20° C. and -70° C., respectively. These served as stock cultures from which all preparations originated.
Working stock cultures were maintained by weekly transfer to Brain Heart Infusion Anaerobic Sheep Blood Agar plates (BHIA, Becton Dickinson and Co., Cockeysville, Md.), and Trypticase Soy Anaerobic Sheep Blood Agar plates (TSA, Becton Dickinson and Co., Cockeysville, Md.). Plates were incubated for 3 to 4 days under strictly anaerobic conditions. For the bacteriostatic assay, bacteria were collected from plates, inoculated into the aforementioned broth and grown at 37° C., under strictly anaerobic conditions for 24 to 48 hours.
A modification of the typical microdilution assay (Rotilie et al., 1975) for the determination of minimal inhibitory concentration (MIC) of antimicrobial agents was utilized to investigate the bacteriostatic activity of the peptides. A standardized bacterial inoculum (P. gingivalis) was exposed to serially diluted antimicrobial peptides in an enriched broth medium that was suitable for the growth of anaerobic bacteria. The test was adapted for use in the 96-well microtiter plates. […] The modification introduced here was based on the spectrophotometric reading of the microtiter plate after incubation.
Microorganisms from cultures maintained in the aforementioned plates were inoculated into 5 ml of the above-mentioned broths and cultured overnight at 37° C. under strictly anaerobic conditions with continuous agitation on a minishaker (IKA-Labortechnik, Staufen i. Br., Germany). The bacteria were grown until reaching the late log phase and were then suspended in the same broths to an optical density (O.D.) of 0.1 at 560 nm. The peptides were diluted in 0.01M phosphate buffered saline (PBS), pH 7. Forty μl aliquots of peptide dilutions were added in each well of a U-bottom microtiter plate (Costar, Cambridge, Mass.) to give final concentrations of 2000, 1000, 500 and 250 μM. Twenty μl of bacterial inoculum was added to all the wells. Finally, 100 μl of the suitable broth were added to each well. The optical density of the wells of the microtiter plate was determined using a microplate reader set at 550 nm and the plate was then incubated under strictly anaerobic conditions for 24 hours. Controls were made by replacing the peptide dilutions with PBS alone. After the incubation, the mixtures in each well were mixed manually to resuspend sedimented bacteria and the plate was read again. The experiments were conducted twice every time. The biologic activity was calculated according to the formula:
100-[[(Fin ODexp-In ODexp)/(Fin ODctr-In ODctr)]×100]
In addition, the % increase in time to reach midlog phase growth was calculated.
The data presentation represent the means (±SEM) of at least 2 separate experiments.

T1 sequence (P09870 191-526): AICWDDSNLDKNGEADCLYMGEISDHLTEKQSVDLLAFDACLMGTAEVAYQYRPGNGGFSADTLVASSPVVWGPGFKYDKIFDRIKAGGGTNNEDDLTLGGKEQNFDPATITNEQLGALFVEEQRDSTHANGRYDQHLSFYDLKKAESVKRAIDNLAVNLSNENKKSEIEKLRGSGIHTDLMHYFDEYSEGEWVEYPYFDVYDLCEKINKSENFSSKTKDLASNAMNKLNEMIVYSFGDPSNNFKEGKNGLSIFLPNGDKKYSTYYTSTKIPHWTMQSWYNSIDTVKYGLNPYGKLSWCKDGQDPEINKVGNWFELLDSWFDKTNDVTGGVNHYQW
T1 sequence (P09870 51-181): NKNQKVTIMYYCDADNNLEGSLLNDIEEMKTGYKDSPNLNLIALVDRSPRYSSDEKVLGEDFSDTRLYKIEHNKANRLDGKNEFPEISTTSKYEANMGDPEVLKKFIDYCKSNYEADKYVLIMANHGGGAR

Molecule	C. albicans: LD50 (μM) for % killing [1]	Hemagglutination: lowest dose (μM) at which hemagglutination was observed using P. Gingivalis [2]	IC50 (Clostripain)	P. gingivalis: % increase in time to reach mid logphase growth (0.2 OD) ([3]; 2 mM dose)	P. gingivalis: % inhibition at 500 μM dose (scoring) ([3]; 500 μM dose, highest response seen used in the scoring)
KRHHGYKRKFHEKHHSHRGYR [peptide 101]	3.5 µM	1.56 µM	–	–	–
C[C@H](NC(=O)[C@H](Cc1c[nH]cn1)NC(=O)[C@H](CO)NC(=O)[C@@H](N)CC(=O)O)C(=O)N[C@@H](CCCCN)C(=O)N[C@@H](CCCNC(=N)N)C(=O)N[C@@H](Cc1c[nH]cn1)C(=O)N[C@@H](Cc1c[nH]cn1)C(=O)NCC(=O)N[C@@H](Cc1ccc(O)cc1)C(=O)N[C@@H](CCCCN)C(=O)N[C@@H](CCCNC(=N)N)C(=O)N[C@@H](CCCCN)C(=O)N[C@@H](Cc1ccccc1)C(=O)N[C@@H](Cc1c[nH]cn1)C(=O)N[C@@H](CCC(=O)O)C(=O)N[C@@H](CCCCN)C(=O)N[C@@H](Cc1c[nH]cn1)C(=O)N[C@@H](Cc1c[nH]cn1)C(=O)N[C@@H](CO)C(=O)N[C@@H](Cc1c[nH]cn1)C(=O)N[C@@H](CCCNC(=N)N)C(=O)NCC(=O)N[C@@H](Cc1ccc(O)cc1)C(=O)O [SynHis5, reference compound]	3.0 µM	–	< 6.2 µM	–	–
KRHHGYKRKFHEKHHSHR [peptide 103]	4.5 µM	1.56 µM	–	56.6%	–
KRHHGYKRKFHEKHH [peptide 105]	5.0 µM	6.25 µM	–	–	+++ (+++50-80%)
